ChEMBL document CHEMBL1201862, “PubChem BioAssay data set” (2004)
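Cells were grown in 96-well plates and exposed to each compound for 48 hours at five concentrations; endpoints were interpolated linearly between bracketing concentrations, or set to the highest concentration if not reached. Abbreviation: GI50, concentration required for 50% inhibition of growth.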 The source made the active and inactive calls. No stated cut-off is given here; in the data, active = GI50 up to about 1.1 µM and inactive = higher.

Tests used:
Assay in all cases: NCI-60 cell line screen, 48 h
RPMI-8226 = test system: RPMI-8226
SNB-75 = test system: SNB-75
HCC 2998 = test system: HCC 2998
SF-268 = test system: SF-268
NCI-H460 = test system: NCI-H460
OVCAR-8 = test system: OVCAR-8
HCT-116 = test system: HCT-116
IGROV-1 = test system: IGROV-1
M14 = test system: M14
U-251 = test system: U-251
COLO 205 = test system: COLO 205
SW-620 = test system: SW-620
NCI-H226 = test system: NCI-H226
OVCAR-3 = test system: OVCAR-3
SF-295 = test system: SF-295
SK-OV-3 = test system: SK-OV-3
UACC-62 = test system: UACC-62
RXF 393 = test system: RXF 393
MDA-MB-231 = test system: MDA-MB-231
Hs-578T = test system: Hs-578T

| SMILES | GI50 (RPMI-8226) | GI50 (SNB-75) | GI50 (HCC 2998) | GI50 (SF-268) | GI50 (NCI-H460) | GI50 (OVCAR-8) | GI50 (HCT-116) | GI50 (IGROV-1) | GI50 (M14) | GI50 (U-251) | GI50 (COLO 205) | GI50 (SW-620) | GI50 (NCI-H226) | GI50 (OVCAR-3) | GI50 (SF-295) | GI50 (SK-OV-3) | GI50 (UACC-62) | GI50 (RXF 393) | GI50 (MDA-MB-231) | GI50 (Hs-578T) |
| --- | --- | --- | --- | --- | --- | --- | --- | --- | --- | --- | --- | --- | --- | --- | --- | --- | --- | --- | --- | --- |
| CC(C)(C)c1nc2c(o1)/C(=N\c1ccccc1)c1ccccc1C2=O | 3.94 µM (inactive) | 5.61 µM (inactive) | 18.6 µM (inactive) | 3.55 µM (inactive) | 6.12 µM (inactive) | 2.72 µM (inactive) | 3.23 µM (inactive) | 6.87 µM (inactive) | 2.33 µM (inactive) | 3.85 µM (inactive) | 32.3 µM (inactive) | 4.47 µM (inactive) | 9.42 µM (inactive) | 1.33 µM (inactive) | 3.99 µM (inactive) | 34.5 µM (inactive) | 2.17 µM (inactive) | 4.91 µM (inactive) |  |  |
| O=C1Nc2ccccc2Nc2nc3cccccc-3c21 | > 100 µM (inactive) | > 100 µM (inactive) | > 100 µM (inactive) | > 100 µM (inactive) | > 100 µM (inactive) | > 100 µM (inactive) | > 100 µM (inactive) | > 100 µM (inactive) | > 100 µM (inactive) | > 100 µM (inactive) | > 100 µM (inactive) | > 100 µM (inactive) | > 100 µM (inactive) | > 100 µM (inactive) | > 100 µM (inactive) | > 100 µM (inactive) | > 100 µM (inactive) | > 100 µM (inactive) |  |  |
| COc1c(OC(C)=O)cc2c(OC(C)=O)c1CC(C)CC(OC)C(O)C(C)/C=C(\C)C(OC(N)=O)C(OC)/C=C\C=C(/C)C(=O)N2 (configuration not stated) | > 54.5 µM (inactive) | > 100 µM (inactive) | 36.5 µM (inactive) | > 100 µM (inactive) | > 100 µM (inactive) | > 65 µM (inactive) | > 55.5 µM (inactive) | > 100 µM (inactive) | > 100 µM (inactive) | > 100 µM (inactive) | 5.77 µM (inactive) | 24 µM (inactive) | > 100 µM (inactive) | 98.4 µM (inactive) | > 100 µM (inactive) | > 100 µM (inactive) | > 100 µM (inactive) | 98.2 µM (inactive) |  |  |
| CCOCc1cc(=O)c2cc3c(cc2o1)OC(C)(C)CC3 | 91.4 µM (inactive) | > 100 µM (inactive) | > 100 µM (inactive) | > 100 µM (inactive) | > 100 µM (inactive) | > 100 µM (inactive) | > 100 µM (inactive) | > 100 µM (inactive) | > 100 µM (inactive) | > 100 µM (inactive) | > 100 µM (inactive) | > 100 µM (inactive) | > 100 µM (inactive) | > 100 µM (inactive) | 93.8 µM (inactive) | > 100 µM (inactive) | > 100 µM (inactive) | > 100 µM (inactive) |  |  |
| C[C@@H](O)C(=O)N1[C@@H]2CC3CC[C@]2(CS1(=O)=O)C3(C)C | 39.7 µM (inactive) | > 100 µM (inactive) | 49.1 µM (inactive) |  | 85.9 µM (inactive) | > 100 µM (inactive) | 67.8 µM (inactive) | > 100 µM (inactive) | 93.5 µM (inactive) | 52.1 µM (inactive) | 79.3 µM (inactive) | 28.1 µM (inactive) | 23.2 µM (inactive) | > 100 µM (inactive) | > 100 µM (inactive) | > 100 µM (inactive) | > 100 µM (inactive) | > 100 µM (inactive) | > 100 µM (inactive) |  |
| CCOC(=O)/C(C#N)=C/c1[nH]c(C)c(C)c1C | > 100 µM (inactive) | > 100 µM (inactive) | > 100 µM (inactive) | > 100 µM (inactive) | > 100 µM (inactive) | > 100 µM (inactive) | > 100 µM (inactive) | > 100 µM (inactive) | > 100 µM (inactive) | > 100 µM (inactive) | > 100 µM (inactive) | > 100 µM (inactive) | > 100 µM (inactive) | > 100 µM (inactive) | > 100 µM (inactive) | > 100 µM (inactive) | > 100 µM (inactive) | > 100 µM (inactive) |  |  |
| CCSc1nc2sc(C)c(C)c2c(=O)n1-c1ccc(C(=O)O)cc1 | 34.1 µM (inactive) | 13.6 µM (inactive) | 85.1 µM (inactive) | 27.2 µM (inactive) | 60.1 µM (inactive) | 72.4 µM (inactive) | 22.7 µM (inactive) | 90.8 µM (inactive) | > 100 µM (inactive) | 55.5 µM (inactive) | > 100 µM (inactive) | > 100 µM (inactive) | 19.8 µM (inactive) | 24.8 µM (inactive) | 40.9 µM (inactive) | > 100 µM (inactive) | > 100 µM (inactive) | 25.5 µM (inactive) |  |  |
| C[C@H]1[C@H](C)CC[C@]2(C)CC[C@]3(C)C(=C[C@@H](O)[C@@H]4[C@@]5(C)[C@H](O)[C@@H](O)[C@H](O)C(C)(C)[C@@H]5CC[C@]43C)[C@H]12 | 55.6 µM (inactive) |  |  | > 100 µM (inactive) | > 100 µM (inactive) | > 100 µM (inactive) | > 100 µM (inactive) | 67.8 µM (inactive) | > 100 µM (inactive) | > 100 µM (inactive) | > 100 µM (inactive) | > 100 µM (inactive) |  | 77.1 µM (inactive) | > 100 µM (inactive) | > 100 µM (inactive) | > 100 µM (inactive) |  | > 100 µM (inactive) | > 100 µM (inactive) |
| COc1cc([C@@H]2c3cc4c(cc3[C@@H](NCc3ccc(C#N)cc3)C3COC(=O)[C@@H]32)OCO4)cc(OC)c1O (some centres not stated) | 0.993 µM (active) | 0.628 µM (active) | 1.57 µM (inactive) | 1.25 µM (inactive) | 0.0344 µM (active) | 1.2 µM (inactive) | 1.19 µM (inactive) | 1.15 µM (inactive) | 1.1 µM (active) | 0.123 µM (active) | 0.948 µM (active) | 0.766 µM (active) | 0.283 µM (active) | 2.16 µM (inactive) | 0.533 µM (active) | 0.989 µM (active) | 0.55 µM (active) | 2.96 µM (inactive) |  |  |
| CN(C)C1(N(C)C)Oc2c(c(=O)n(C)c(=O)n2C)C(c2ccccc2Br)C1(F)F (configuration not stated) | > 100 µM (inactive) | > 100 µM (inactive) | > 100 µM (inactive) | > 100 µM (inactive) | > 100 µM (inactive) |  | > 100 µM (inactive) |  | > 100 µM (inactive) | > 100 µM (inactive) | > 100 µM (inactive) | > 100 µM (inactive) | > 100 µM (inactive) | > 100 µM (inactive) | > 100 µM (inactive) | > 100 µM (inactive) | > 100 µM (inactive) | > 100 µM (inactive) | > 100 µM (inactive) |  |
| N#CC(C#N)=CNCCN1CCN(C=C(C#N)C#N)CC1 | > 100 µM (inactive) |  |  | > 100 µM (inactive) | > 100 µM (inactive) | > 100 µM (inactive) | > 100 µM (inactive) | > 100 µM (inactive) | > 100 µM (inactive) | > 100 µM (inactive) | > 100 µM (inactive) | > 100 µM (inactive) | > 100 µM (inactive) | > 100 µM (inactive) | > 100 µM (inactive) | > 100 µM (inactive) | > 100 µM (inactive) |  | > 100 µM (inactive) | > 100 µM (inactive) |
| Oc1cc(-c2cccs2)nc2cc3c(cc12)OCO3 | 6.32 µM (inactive) | 1.41 µM (inactive) | 7.13 µM (inactive) | 6.43 µM (inactive) | 3.24 µM (inactive) | 4.66 µM (inactive) | 4.14 µM (inactive) | 3.37 µM (inactive) | 2.55 µM (inactive) | 7.43 µM (inactive) | 9.06 µM (inactive) | 3.03 µM (inactive) | 4.32 µM (inactive) | 4.63 µM (inactive) | 3.48 µM (inactive) | 2.7 µM (inactive) | 2.92 µM (inactive) | 1.9 µM (inactive) |  |  |
| COc1ccc(OC)c(-c2cc(O)c3cc4c(cc3n2)OCO4)c1 | 4.18 µM (inactive) | 3.44 µM (inactive) | 4.67 µM (inactive) | 7.74 µM (inactive) | 3.41 µM (inactive) | 9.59 µM (inactive) | 4.14 µM (inactive) | 10.5 µM (inactive) | 3.94 µM (inactive) | 7.59 µM (inactive) | 2.65 µM (inactive) | 3.83 µM (inactive) | 7.38 µM (inactive) | 3.93 µM (inactive) | 4.15 µM (inactive) | 3.49 µM (inactive) | 3.58 µM (inactive) | 2.99 µM (inactive) |  |  |
| O=[N+]([O-])c1ccc(Cl)c(C2CC(c3cccc4ccccc34)=Nc3ccccc3[S+]2[O-])c1 (configuration not stated) | 2.21 µM (inactive) | 5.86 µM (inactive) | 14.8 µM (inactive) | 18.4 µM (inactive) | 19.4 µM (inactive) | 8.77 µM (inactive) | 9.73 µM (inactive) | 28.2 µM (inactive) | 17.7 µM (inactive) | 13.1 µM (inactive) | > 56.6 µM (inactive) | 7.85 µM (inactive) | 21.7 µM (inactive) | 22.6 µM (inactive) | 18.2 µM (inactive) | > 100 µM (inactive) | 10.6 µM (inactive) | 7.05 µM (inactive) |  |  |
| O=C(O)CSC(NC(=O)C(C(F)(F)F)C(F)(F)F)(C(F)(F)F)C(F)(F)F | > 100 µM (inactive) | > 100 µM (inactive) | > 100 µM (inactive) | > 100 µM (inactive) |  | 23.2 µM (inactive) | > 100 µM (inactive) | > 100 µM (inactive) | > 100 µM (inactive) | > 100 µM (inactive) | > 100 µM (inactive) | > 100 µM (inactive) |  |  |  | > 100 µM (inactive) |  | 28.4 µM (inactive) |  | > 100 µM (inactive) |
